# Assay results published in patent US20230116972A1, “CD38 MODULATORS AND METHODS OF USE THEREOF” (Cytokinetics, Inc., priority 2021, published 2023).
# Legend:
# mouse CD38 = molecular target: T1, mouse CD38 (Mus musculus, UniProt P56528); test: mouse recombinant CD38 enzyme assay (hydrolysis of NAD+); assay type: biochemical; conditions: read-out: mCD38 BioChem IC50
# T1 sequence (P56528 1-304): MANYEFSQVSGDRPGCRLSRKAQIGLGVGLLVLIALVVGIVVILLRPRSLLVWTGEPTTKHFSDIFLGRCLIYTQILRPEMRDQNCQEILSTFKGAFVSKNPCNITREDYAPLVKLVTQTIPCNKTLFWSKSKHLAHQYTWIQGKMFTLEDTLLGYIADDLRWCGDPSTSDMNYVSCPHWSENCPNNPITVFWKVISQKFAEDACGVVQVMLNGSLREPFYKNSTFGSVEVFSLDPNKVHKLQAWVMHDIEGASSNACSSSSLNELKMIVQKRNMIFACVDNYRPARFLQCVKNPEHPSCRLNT
# How it was run: (§1)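 Cell-free recombinant enzyme, NAD+ substrate, 60 min at RT. Stop/detect: ethanol/ADH plus semicarbazide and a CD38 inhibitor (15 min), then NaOH, then resazurin/diaphorase (15 min). Remaining NAD+ read as resorufin fluorescence, Ex/Em 540/590 nm. Inhibition fitted from dose responses.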
# human CD38 = molecular target: T2, human CD38 (Homo sapiens, UniProt P28907); test: human recombinant CD38 enzyme assay (hydrolysis of NAD+); assay type: biochemical; conditions: human recombinant CD38, 0.4 nM enzyme, 62.5 μM NAD+; read-out: hCD38 BioChem IC50
# T2 sequence (P28907 1-300): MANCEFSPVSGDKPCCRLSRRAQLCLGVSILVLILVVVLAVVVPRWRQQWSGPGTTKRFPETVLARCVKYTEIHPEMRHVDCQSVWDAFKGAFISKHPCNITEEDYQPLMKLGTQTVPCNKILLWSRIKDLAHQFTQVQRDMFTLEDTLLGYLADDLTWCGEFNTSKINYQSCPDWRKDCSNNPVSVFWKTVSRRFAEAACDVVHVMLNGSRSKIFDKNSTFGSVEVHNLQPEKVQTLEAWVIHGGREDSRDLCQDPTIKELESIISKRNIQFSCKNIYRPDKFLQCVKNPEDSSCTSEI
# How it was run: as §1
# [1] = molecular target: T3, endogenous CD38 in HL60 cells (Homo sapiens, UniProt P28907); test: cellular CD38 assay in HL60 cells (cellular NAD levels); assay type: cell-based; conditions: all-trans retinoic acid, 24 hours, read-out: hCD38 HL60 ATRA NAD Cell Diaphorase IC50
# T3 construct: endogenous in cells; host or cells: HL60 (leukemic cells, treated with all-trans retinoic acid)
# T3 sequence (P28907 1-300): T2 sequence (P28907 1-300)
# Experimental: The compounds described herein were also assayed for their ability to inhibit the endogenous CD38 in a native cellular environment in the cellular CD38 assay, which measures the ability of the compound to modulate cellular NAD levels. […] The assays were initiated by plating 20 μL of HL60 cells in culture medium, at a density of 20000 cells per well to a 384-well Corning™ Multiwell Plates. Compounds in DMSO were added to the plates in a volume of 120 nL using the Labcyte Echo Liquid Handlers. […] The plates are then incubated for 24 hours. 50 μL of a readout-solution containing 0.2 U/mL Diaphorase enzyme, 40 uM resazurin, 10 uM FMN, 0.8 U/mL Alcohol dehydrogenase, 3% ethanol, 0.4 mg/mL bovine serum albumin, 0.2% Triton X-100 in 100 mM Tris-HCl, 30 mM EDTA, pH 8.4. The plates were read for fluorescence (Excitation/Emission=540 nm/590 nm) using an EnVision plate reader after 60 mins of incubation at ambient temperature. Note that, in Table 5, the “Compound No” corresponds to the compound numbers in Table 1.
SMILES,IC50 (mouse CD38) [nM],IC50 (human CD38) [nM],IC50 [1] [nM]
"O=C(Nc1ccc(C(F)(F)F)nc1)c1nc(-n2ccnc2)ccc1F [Compound 42, 3-fluoro-6-(1H-imidazol-1-yl)-N-(6-(trifluoromethyl)pyridin-3-yl)picolinamide]",8,9,903
"COCCO[C@H]1CC[C@H](NC(=O)c2nc(-n3ccnc3)ccc2F)CC1 [Compound 43, 3-fluoro-6-(1H-imidazol-1-yl)-N-(4-(2-methoxyethoxy)cyclohexyl)picolinamide]",32,200,7490
"CC(=O)N1CCC(NC(=O)c2cccc(-n3ccnc3)n2)CC1 [Compound 44, N-(1-acetylpiperidin-4-yl)-6-(1H-imidazol-1-yl)picolinamide]",66,98,5820
"COC(=O)N1CCC(NC(=O)c2cccc(-n3ccnc3)n2)CC1 [Compound 45, methyl 4-(6-(1H-imidazol-1-yl)picolinamido)piperidine-1-carboxylate]",44,82,4690
"CC(=O)N1CC2(CC(NC(=O)c3cccc(-n4ccnc4)n3)C2)C1 [Compound 47, N-(2-acetyl-2-azaspiro[3.3]heptan-6-yl)-6-(1H-imidazol-1-yl)picolinamide]",100,417,9150
"COC(=O)N1CC2(CC(NC(=O)c3cccc(-n4ccnc4)n3)C2)C1 [Compound 48, methyl 6-(6-(1H-imidazol-1-yl)picolinamido)-2-azaspiro[3.3]heptane-2-carboxylate]",46,244,3760
"O=C(NC1CCCOC1)c1cccc(-n2ccnc2)n1 (stereo not drawn) [Compound 49, 6-(1H-imidazol-1-yl)-N-(tetrahydro-2H-pyran-3-yl)picolinamide]",29,88,3370
"Cc1cc(NC(=O)c2cccc(-c3cncs3)n2)ccn1 [Compound 52, N-(2-methylpyridin-4-yl)-6-(thiazol-5-yl)picolinamide]",292,678,11400
"O=C(Nc1ccc(C(F)(F)F)nc1)c1ccc(F)c(-n2ccnc2)n1 [Compound 53, 5-fluoro-6-(1H-imidazol-1-yl)-N-(6-(trifluoromethyl)pyridin-3-yl)picolinamide]",10,10,675
"COCCO[C@H]1CC[C@H](NC(=O)c2ccc(F)c(-n3ccnc3)n2)CC1 [Compound 54, 5-fluoro-6-(1H-imidazol-1-yl)-N-(4-(2-methoxyethoxy)cyclohexyl)picolinamide]",38,189,8280
"O=C(Nc1ccc(C(F)(F)F)nc1)c1cncc(-n2ccnc2)n1 [Compound 55, 6-(1H-imidazol-1-yl)-N-(6-(trifluoromethyl)pyridin-3-yl)pyrazine-2-carboxamide]",10,5,522
"O=C(Nc1cccnc1)c1cncc(-n2ccnc2)n1 [Compound 56, 6-(1H-imidazol-1-yl)-N-(pyridin-3-yl)pyrazine-2-carboxamide]",6,5,263
"CO[C@@H]1CC[C@@H](NC(=O)c2cccc(-n3ccnc3)n2)C1 [Compound 57, 6-(1H-imidazol-1-yl)-N-(3-methoxycyclopentyl)picolinamide]",36,187,4550
"Cn1cncc1-c1cccc(C(=O)Nc2cccnc2)n1 [Compound 59, 6-(1-Methyl-1H-imidazol-5-yl)-N-(pyridin-3-yl)picolinamide]",18,25,769
"CO[C@H]1CC[C@H](NC(=O)c2cc(C(F)(F)F)cc(-n3ccnc3)n2)CC1 [Compound 60, 6-(1H-imidazol-1-yl)-N-(4-methoxycyclohexyl)-4-(trifluoromethyl)picolinamide]",12,61,4810
"COCCO[C@H]1CC[C@H](NC(=O)c2cc(C(F)(F)F)cc(-n3ccnc3)n2)CC1 [Compound 61, 6-(1H-imidazol-1-yl)-N-(4-(2-methoxyethoxy)cyclohexyl)-4-(trifluoromethyl)picolinamide]",13,73,7850
"O=C(N[C@H]1CC[C@H](O)CC1)c1cc(C(F)(F)F)cc(-n2ccnc2)n1 [Compound 62, N-(4-hydroxycyclohexyl)-6-(1H-imidazol-1-yl)-4-(trifluoromethyl)picolinamide]",12,61,6710
"O=C(NC1CCOC1)c1cccc(-n2ccnc2)n1 (stereo not drawn) [Compound 63, 6-(1H-imidazol-1-yl)-N-(tetrahydrofuran-3-yl)picolinamide]",163,404,5910
"O=C(N[C@H]1CC[C@H](C(F)F)CC1)c1cccc(-n2ccnc2)n1 [Compound 64, N-(4-(difluoromethyl)cyclohexyl)-6-(1H-imidazol-1-yl)picolinamide]",7,34,2420
"COCCO[C@H]1CC[C@H](NC(=O)c2cccc(-c3cncn3C)n2)CC1 [Compound 65, N-(4-(2-methoxyethoxy)cyclohexyl)-6-(1-methyl-1H-imidazol-5-yl)picolinamide]",62,224,7690
"NC(=O)c1cncn1-c1cccc(C(=O)Nc2ccc(C(F)(F)F)nc2)n1 [Compound 66, 6-(5-carbamoyl-1H-imidazol-1-yl)-N-(6-(trifluoromethyl)pyridin-3-yl)picolinamide]",190,91,3430
"O=C(Nc1ccc(C(F)(F)F)nc1)c1ccnc(-n2ccnc2)n1 [Compound 67, 2-(1H-imidazol-1-yl)-N-(6-(trifluoromethyl)pyridin-3-yl)pyrimidine-4-carboxamide]",9,4,409
"O=C(N[C@H]1CC[C@H](C(F)F)CC1)c1ccnc(-n2ccnc2)n1 [Compound 68, N-((1r,4r)-4-(difluoromethyl)cyclohexyl)-2-(1H-imidazol-1-yl)pyrimidine-4-carboxamide]",6,16,1320
"Cn1cncc1-c1nccc(C(=O)Nc2ccc(C(F)(F)F)nc2)n1 [Compound 69, 2-(1-methyl-1H-imidazol-5-yl)-N-(6-(trifluoromethyl)pyridin-3-yl)pyrimidine-4-carboxamide]",2,3,481
"Cn1cncc1-c1nccc(C(=O)N[C@H]2CC[C@H](C(F)F)CC2)n1 [Compound 70, N-((1r,4r)-4-(difluoromethyl)cyclohexyl)-2-(1-methyl-1H-imidazol-5-yl)pyrimidine-4-carboxamide]",1,5,770
"Cn1cncc1-c1cccc(C(=O)Nc2ccc(C(F)(F)F)nc2)n1 [Compound 71, 6-(1-methyl-1H-imidazol-5-yl)-N-(6-(trifluoromethyl)pyridin-3-yl)picolinamide]",25,15,1440
"O=C(Nc1ccc(C(F)(F)F)nc1)c1nccc(-n2ccnc2)n1 [Compound 72, 4-(1H-imidazol-1-yl)-N-(6-(trifluoromethyl)pyridin-3-yl)pyrimidine-2-carboxamide]",19,4,295
